Assays:
Format in all cases: in vivo
[1] = test system: barnyardgrass (Echinochloa crus-galli); experiment: Test A preemergence, barnyardgrass; settings: Preemergence; for Barnyardgrass plant response rating: 125 g ai/ha, visual injury on 0 to 100 scale (0 no effect, 100 complete control), approximately 10 days; for Plant response rating, Barnyardgrass: 500 g ai/ha, 0 to 100 scale (0 no effect, 100 complete control)
Method in brief: (§1)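 Directed soil spray at planting gave the preemergence treatment, while foliar application to one- to two-leaf seedlings (2–10 cm) gave the postemergence one; pots held a loam and sand mixture and chemicals were carried in a non-phytotoxic solvent with surfactant.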

kochia (Bassia scoparia) [2] = experiment: Test A preemergence, kochia; settings: Preemergence; for Kochia plant response rating: 125 g ai/ha, visual injury on 0 to 100 scale (0 no effect, 100 complete control), approximately 10 days; for Plant response rating, Kochia: 500 g ai/ha, 0 to 100 scale (0 no effect, 100 complete control)
Method in brief: as §1

[3] = test system: ragweed (common ragweed, Ambrosia artemisiifolia); experiment: Test A preemergence, ragweed; settings: Preemergence; for Ragweed plant response rating: 125 g ai/ha, visual injury on 0 to 100 scale (0 no effect, 100 complete control), approximately 10 days; for Plant response rating, Ragweed: 500 g ai/ha, 0 to 100 scale (0 no effect, 100 complete control)
Method in brief: as §1

[4] = test system: Ryegrass, Italian (Italian ryegrass, Lolium multiflorum); experiment: Test A preemergence, Ryegrass, Italian; settings: Preemergence; for Ryegrass, Italian plant response rating: 125 g ai/ha, visual injury on 0 to 100 scale (0 no effect, 100 complete control), approximately 10 days; for Plant response rating, Ryegrass, Italian: 500 g ai/ha, 0 to 100 scale (0 no effect, 100 complete control)
Method in brief: as §1

[5] = test system: Foxtail, Giant (giant foxtail, Setaria faberi); experiment: Test A preemergence, Foxtail, Giant; settings: Preemergence; for Foxtail, Giant plant response rating: 125 g ai/ha, visual injury on 0 to 100 scale (0 no effect, 100 complete control), approximately 10 days; for Plant response rating, Foxtail, Giant: 500 g ai/ha, 0 to 100 scale (0 no effect, 100 complete control)
Method in brief: as §1

[6] = test system: pigweed (Amaranthus retroflexus); experiment: Test A preemergence, pigweed; settings: for Pigweed plant response rating: 125 g ai/ha, visual injury on 0 to 100 scale (0 no effect, 100 complete control), approximately 10 days; for Plant response rating, Pigweed: 500 g ai/ha, 0 to 100 scale (0 no effect, 100 complete control)
Method in brief: (§2)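 Test chemicals, formulated in a non-phytotoxic solvent mixture with surfactant, were sprayed postemergence on plants 2 to 10 cm tall at the one- to two-leaf stage. Preemergence treatment was a directed soil spray onto freshly seeded pots. Both used a loam soil and sand blend.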

[7] = test system: barnyardgrass (Echinochloa crus-galli); experiment: Test A postemergence, barnyardgrass; settings: Postemergence, 0 to 100 scale (0 no effect, 100 complete control); for Plant response rating, Barnyardgrass: 125 g ai/ha; for Barnyardgrass plant response rating: 500 g ai/ha, visual injury vs untreated controls after approx. 10 days
Method in brief: as §2

kochia (Bassia scoparia) [8] = experiment: Test A postemergence, kochia; settings: Postemergence, 0 to 100 scale (0 no effect, 100 complete control); for Plant response rating, Kochia: 125 g ai/ha; for Kochia plant response rating: 500 g ai/ha, visual injury vs untreated controls after approx. 10 days
Method in brief: as §1

[9] = test system: ragweed (common ragweed, Ambrosia artemisiifolia); experiment: Test A postemergence, ragweed; settings: Postemergence, 0 to 100 scale (0 no effect, 100 complete control); for Plant response rating, Ragweed: 125 g ai/ha; for Ragweed plant response rating: 500 g ai/ha, visual injury vs untreated controls after approx. 10 days
Method in brief: as §1

[10] = test system: Ryegrass, Italian (Italian ryegrass, Lolium multiflorum); experiment: Test A postemergence, Ryegrass, Italian; settings: Postemergence, 0 to 100 scale (0 no effect, 100 complete control); for Plant response rating, Ryegrass, Italian: 125 g ai/ha; for Ryegrass, Italian plant response rating: 500 g ai/ha, visual injury vs untreated controls after approx. 10 days
Method in brief: as §1

[11] = test system: Foxtail, Giant (giant foxtail, Setaria faberi); experiment: Test A postemergence, Foxtail, Giant; settings: Postemergence, 0 to 100 scale (0 no effect, 100 complete control); for Plant response rating, Foxtail, Giant: 125 g ai/ha; for Foxtail, Giant plant response rating: 500 g ai/ha, visual injury vs untreated controls after approx. 10 days
Method in brief: as §1

[12] = test system: pigweed (Amaranthus retroflexus); experiment: Test A postemergence, pigweed; settings: Postemergence, 0 to 100 scale (0 no effect, 100 complete control); for Plant response rating, Pigweed: 125 g ai/ha; for Pigweed plant response rating: 500 g ai/ha, visual injury vs untreated controls after approx. 10 days
Method in brief: as §1

[13] = test system: wheat (Triticum aestivum); experiment: Test A postemergence, wheat; settings: Postemergence, 0 to 100 scale (0 no effect, 100 complete control); for Plant response rating, Wheat: 125 g ai/ha; for Wheat plant response rating: 500 g ai/ha, visual injury vs untreated controls after approx. 10 days
Method in brief: as §2

corn (Zea mays) = experiment: Test A postemergence, corn; settings: Postemergence, 0 to 100 scale (0 no effect, 100 complete control); for Plant response rating, Corn: 125 g ai/ha; for Corn plant response rating: 500 g ai/ha, visual injury vs untreated controls after approx. 10 days
Method in brief: as §1

[14] = test system: blackgrass (Alopecurus myosuroides); experiment: Test A postemergence, blackgrass; settings: Postemergence, 0 to 100 scale (0 no effect, 100 complete control); for Plant response rating, Blackgrass: 125 g ai/ha; for Blackgrass plant response rating: 500 g ai/ha, visual injury vs untreated controls after approx. 10 days
Method in brief: as §1

[15] = test system: galium (catchweed bedstraw, Galium aparine); experiment: Test A postemergence, galium; settings: Postemergence, 0 to 100 scale (0 no effect, 100 complete control); for Plant response rating, Galium: 125 g ai/ha; for Galium plant response rating: 500 g ai/ha, visual injury vs untreated controls after approx. 10 days
Method in brief: as §2

| SMILES | Barnyardgrass plant response rating [1] | Plant response rating, Barnyardgrass [1] | Kochia plant response rating (kochia (Bassia scoparia) [2]) | Plant response rating, Kochia (kochia (Bassia scoparia) [2]) | Ragweed plant response rating [3] | Plant response rating, Ragweed [3] | Ryegrass, Italian plant response rating [4] | Plant response rating, Ryegrass, Italian [4] | Foxtail, Giant plant response rating [5] | Plant response rating, Foxtail, Giant [5] | Pigweed plant response rating [6] | Plant response rating, Pigweed [6] | Barnyardgrass plant response rating [7] | Kochia plant response rating (kochia (Bassia scoparia) [8]) | Ragweed plant response rating [9] | Ryegrass, Italian plant response rating [10] | Foxtail, Giant plant response rating [11] | Pigweed plant response rating [12] | Wheat plant response rating [13] | Corn plant response rating (corn (Zea mays)) | also measured |
| --- | --- | --- | --- | --- | --- | --- | --- | --- | --- | --- | --- | --- | --- | --- | --- | --- | --- | --- | --- | --- | --- |
| CCCn1nccc(-c2cc(NS(=O)(=O)C(F)(F)F)c(C)cc2C)c1=O [Compound 58] | 100 | 100 | 0 | 80 | 0 | 0 | 70 | 100 | 100 | 100 | 0 | 50 | 90 | 20 | 20 | 60 | 90 | 0 | 70 | 50 | Plant response rating, Barnyardgrass ([7]; visual injury approx. 10 days): 20; Plant response rating, Kochia (kochia (Bassia scoparia) [8]; visual injury approx. 10 days): 0; Plant response rating, Ragweed ([9]; visual injury approx. 10 days): 0; Plant response rating, Ryegrass, Italian ([10]; visual injury approx. 10 days): 0; Plant response rating, Foxtail, Giant ([11]; visual injury approx. 10 days): 30; Plant response rating, Pigweed ([12]; visual injury approx. 10 days): 0; Plant response rating, Wheat ([13]; visual injury approx. 10 days): 20; Plant response rating, Corn (corn (Zea mays); visual injury approx. 10 days): 20; Plant response rating, Blackgrass ([14]; visual injury approx. 10 days): 0; Blackgrass plant response rating [14]: 30; Plant response rating, Galium ([15]; visual injury approx. 10 days): 80; Galium plant response rating [15]: 90 |
| Cc1cc(C)c(-c2cc(Br)nn(C)c2=O)cc1NS(=O)(=O)C(F)(F)F [Compound 69] | 40 | 90 | 70 | 90 | 50 | 90 | 100 | 100 | 100 | 100 | 80 | 100 | 80 | 60 | 80 | 70 | 90 | 90 | 70 | 20 | Plant response rating, Barnyardgrass ([7]; visual injury approx. 10 days): 0; Plant response rating, Kochia (kochia (Bassia scoparia) [8]; visual injury approx. 10 days): 40; Plant response rating, Ragweed ([9]; visual injury approx. 10 days): 60; Plant response rating, Ryegrass, Italian ([10]; visual injury approx. 10 days): 40; Plant response rating, Foxtail, Giant ([11]; visual injury approx. 10 days): 80; Plant response rating, Pigweed ([12]; visual injury approx. 10 days): 70; Plant response rating, Wheat ([13]; visual injury approx. 10 days): 60; Plant response rating, Corn (corn (Zea mays); visual injury approx. 10 days): 10; Plant response rating, Blackgrass ([14]; visual injury approx. 10 days): 0; Blackgrass plant response rating [14]: 50; Plant response rating, Galium ([15]; visual injury approx. 10 days): 60; Galium plant response rating [15]: 70 |
| Cc1cc(C)c(C(=O)N2CCCOCC2)cc1NS(=O)(=O)C(F)(F)F [Compound 160] | 80 | 100 | 20 | 90 | 10 | 90 | 50 | 60 | 90 | 100 | 90 | 100 | 80 | 30 | 80 | 0 | 60 | 90 | 20 | 10 | Plant response rating, Barnyardgrass [7]: 30; Plant response rating, Kochia (kochia (Bassia scoparia) [8]): 10; Plant response rating, Ragweed [9]: 70; Plant response rating, Ryegrass, Italian [10]: 0; Plant response rating, Foxtail, Giant [11]: 0; Plant response rating, Pigweed [12]: 70; Plant response rating, Wheat [13]: 0; Plant response rating, Corn (corn (Zea mays)): 0; Plant response rating, Blackgrass [14]: 0; Blackgrass plant response rating [14]: 10; Plant response rating, Galium [15]: 80; Galium plant response rating [15]: 90 |
| Cc1ccc(-c2ccnn(C)c2=O)cc1N(S(=O)(=O)C(F)(F)F)S(=O)(=O)C(F)(F)F [Compound 66] | 0 | 90 | 0 | 40 | 0 | 10 | 0 | 0 | 0 | 60 | 0 | 30 | 30 | 10 | 0 | 0 | 30 | 50 | 40 | 10 | Plant response rating, Barnyardgrass ([7]; visual injury approx. 10 days): 0; Plant response rating, Kochia (kochia (Bassia scoparia) [8]; visual injury approx. 10 days): 0; Plant response rating, Ragweed ([9]; visual injury approx. 10 days): 0; Plant response rating, Ryegrass, Italian ([10]; visual injury approx. 10 days): 0; Plant response rating, Foxtail, Giant ([11]; visual injury approx. 10 days): 0; Plant response rating, Pigweed ([12]; visual injury approx. 10 days): 0; Plant response rating, Wheat ([13]; visual injury approx. 10 days): 0; Plant response rating, Corn (corn (Zea mays); visual injury approx. 10 days): 0; Plant response rating, Blackgrass ([14]; visual injury approx. 10 days): 0; Blackgrass plant response rating [14]: 0; Plant response rating, Galium ([15]; visual injury approx. 10 days): 50; Galium plant response rating [15]: 70 |
